≈ marks a conversion by molar mass, not a printed value. Read-outs that look alike come from different tables or passages of the source. Where a SMILES comes first, the peptide text is derived from it. Bridges are numbered along the chain shown (N, C = ends). [ ]: non-standard residue; d: D form. The star is where a group is joined. Ileψ(thiazoline)Cys = CC[C@H](C)[C@H](N)C1=N[C@H](C(=O)*)CS1; dOrn = NCCC[C@@H](N)C(=O)O
Tests used:
[1] = tested on: Staphylococcus epidermidis; assay: In vitro antibacterial activity (Table 5), MIC; type: cell-based, S. epidermidis
Streptococcus D = assay: In vitro antibacterial activity (Table 5), MIC; type: cell-based
Streptococcus pneumoniae = assay: In vitro antibacterial activity (Table 5), MIC; type: cell-based, S. pneumoniae; settings: strain PARK
Staphylococcus aureus = assay: In vitro antibacterial activity (Table 5), MIC; type: cell-based
Haemophilus influenzae = assay: In vitro antibacterial activity (Table 5), MIC; type: cell-based
Streptococcus A = assay: In vitro antibacterial activity (Table 5), MIC; type: cell-based; settings: strain C203
culture A84575 [2] = assay: Resistance of culture A84575 to antibiotics (antibiotic sensitivity discs, ISP No. 2 agar); type: cell-based, Streptosporangium carneum; settings: 50 μg/mL
culture A84575 [3] = assay: as above; type: cell-based, Streptosporangium carneum; settings: disc
Experimental: Resistance to antibiotics was measured by padding antibiotic sensitivity discs (Difco) onto the surface of seeded ISP No. 2 agar plates. Resistance was scored as (+) when no zone of inhibition was observed, and as (-) when a zone of inhibition was observed.

Compound: CO/N=C(\C(=O)N[C@@H]1C(=O)N2C(C(=O)O)=C(COC(C)=O)CS[C@H]12)c1csc(N)n1 [Standard]
- MIC ([1]; strain 222): 2 µg/mL (≈ 4.39 µM)
- MIC ([1]; strain 270): 8 µg/mL (≈ 17.6 µM)
- MIC (Streptococcus D; strain 2041): 128 µg/mL (≈ 281 µM)
- MIC (Streptococcus D; strain X66): > 128 µg/mL
- MIC (Streptococcus pneumoniae): 0.015 µg/mL (≈ 0.0329 µM)
- MIC (Staphylococcus aureus): 16 µg/mL (≈ 35.1 µM)
- MIC (Staphylococcus aureus; strain U41, read-out: MIC): 4 µg/mL (≈ 8.78 µM)
- MIC (Staphylococcus aureus; strain X1.1, read-out: MIC): 2 µg/mL (≈ 4.39 µM)
- MIC (Staphylococcus aureus; strain X400, read-out: MIC): 128 µg/mL (≈ 281 µM)
- MIC (Haemophilus influenzae; Haemophilus influenzae, strain C.L., sensitive strain, read-out: MIC): 0.015 µg/mL (≈ 0.0329 µM)
- MIC (Haemophilus influenzae; strain 76, resistant strain): .015 µg/mL (≈ 0.0329 µM)
- MIC (Streptococcus A): 0.015 µg/mL (≈ 0.0329 µM)

Compound: lysozyme
- Sensitivity to lysozyme (culture A84575 [2]): sensitive

Compound: CC1(C)S[C@@H]2[C@H](NC(=O)Cc3ccccc3)C(=O)N2[C@H]1C(=O)O [penicillin G]
- Resistance to antibiotics (culture A84575 [3]; 10 units): resistant

Compound: CC[C@H](C)[C@H](N)C1=N[C@H](C(=O)N[C@@H](CC(C)C)C(=O)N[C@H](CCC(=O)O)C(=O)N[C@H](C(=O)N[C@H]2CCCCNC(=O)[C@H](CC(N)=O)NC(=O)[C@@H](CC(=O)O)NC(=O)[C@H](Cc3cnc[nH]3)NC(=O)[C@@H](Cc3ccccc3)NC(=O)[C@H]([C@@H](C)CC)NC(=O)[C@@H](CCCN)NC2=O)[C@@H](C)CC)CS1 [bacitracin] ({Ileψ(thiazoline)Cys}-L[dE]IK[dOrn]I[dF]H[dD]N; lactam 4-C)
- Resistance to antibiotics (culture A84575 [3]; 10 units): resistant

Compound: CCC[C@@H]1C[C@@H](C(=O)N[C@@H]([C@H]2O[C@H](SC)[C@H](O)[C@@H](O)[C@H]2O)[C@@H](C)O)N(C)C1 [lincomycin]
- Resistance to antibiotics (culture A84575 [3]; 2 μm): resistant

Compound: CO[C@H]1/C=C/O[C@@]2(C)Oc3c(C)c(O)c4c(O)c(c(/C=N/N5CCN(C)CC5)c(O)c4c3C2=O)NC(=O)/C(C)=C\C=C\[C@H](C)[C@H](O)[C@@H](C)[C@@H](O)[C@@H](C)[C@H](OC(C)=O)[C@@H]1C [rifampin]
- Resistance to antibiotics (culture A84575 [3]; 5 μm): sensitive

Compound: CO[C@H]1C[C@H](O[C@H]2[C@H](C)[C@@H](O[C@@H]3O[C@H](C)C[C@H](N(C)C)[C@H]3O)[C@@H](C)C[C@@]3(CO3)C(=O)[C@H](C)[C@@H](O)[C@@H](C)[C@@H](C)OC(=O)[C@@H]2C)O[C@@H](C)[C@@H]1O [oleandomycin]
- Resistance to antibiotics (culture A84575 [3]; 15 μm): sensitive

Reference: US5286648A, “A84575 antibiotics” (Eli Lilly and Company, priority 1991, dated 1994)
